Experimental data: the NIST ThermoML archive (doi:10.1021/je5000296)
Numbers after ± are expanded uncertainties.

Settings: Liquid, Ebulliometric method (Recirculating still)

Compound	vapor or sublimation pressure (399.15 K) [kPa]	vapor or sublimation pressure (390.48 K) [kPa]
CCCCOC(C)=O [butyl ethanoate]	101.3 ± 0.91	–
CCCCO [butan-1-ol]	–	101.3 ± 0.91
